Test results published in publication PMC7707092, “Discovery and characterization of ORM‐11372, a novel inhibitor of the sodium‐calcium exchanger with positive inotropic activity” (British Journal of Pharmacology, 2020).
“And” between values parts separate entries of the source, which are not always exact repeats. Equal entries are not always repeated.

Columns and labels:
human NCX 1.1 = biological target: T1, human NCX 1.1 (Homo sapiens, UniProt P32418); test: Fluorescence screening assay for hNCX 1.1 inhibition (reverse mode, Sf9 cells); format: cell-based; settings: for IC50: Sf9 cells expressing human NCX1.1, reverse mode, fluorescence, n=3 assays
T1 construct: expressed in transfected cells
Procedure: Spodoptera frugiperda (Sf9; RRID:CVCL_0549) cells are widely used for the transient and stable expression of recombinant proteins. Here, Sf9 cells were stably transfected with human NCX 1.1 and maintained in spinner flasks with insect cell culture medium (TNM‐FH), supplemented with 10% FBS, antibiotic–antimycotic solution, and 50 μg·ml^−1 of blasticidin at 28°C in a non‐humidified, CO2‐free atmosphere. The Sf9 cell suspension was subcultured three times a week.
NCX reverse mode activity was stimulated via a 50% dilution of the extracellular Na^+ level using the internal pipettor of FLEXstation, a fluorescence imaging plate reader (Molecular Devices, USA), while simultaneously monitoring intracellular calcium levels. After dilution, the concentration of other ions remained the same, but Na^+ concentration was diluted to the half of original concentration of 172 to 86 mM. For Sf9 insect cells, normal extracellular Na^+ ion concentration is 172 mM. Typically, 50 μl of a solution containing 150,000–200,000 Sf9–NCX cells was loaded onto each well of a 96‐well plate. Cells were preincubated with the intracellular calcium dye Fluo‐4 and Fluo‐6, and the concentrations of the test compound (three replicates) were determined for about 1 h at room temperature before experimentation. The extracellular solution contained (in mM) 172 NaCl, 10 HEPES, 1 CaCl2, 1.2 MgCl2, 0.33 NaH2PO4, 5 glucose, and 5 probenecid. The pH was adjusted to 7.4 with NaOH. The extracellular Na^+ was diluted by the addition of a Na^+‐free extracellular solution (containing in mM: 147 N‐methyl‐D‐glucamine (NMDG), 10 HEPES, 1 CaCl2, 1.2 MgCl2, 0.33 NaH2PO4, and 5 glucose with the pH adjusted by HCl to 7.4)‐induced robust and reproducible elevation of intracellular calcium. The osmolarity of both solutions was adjusted to 340–355 mOsm in order to match the Sf9 cell media osmolarity. In each plate, the IC50 determination for each test compound was based on relative fluorescence changes in comparison with control and 5‐mM nickel acetate‐induced NCX inhibition.

[1] = biological target: T2, human NaV1.5 channel current (I Na) (Homo sapiens, UniProt Q14524); test: NaV1.5 channel current (I Na), patch‐clamp in HEK cells; format: cell-based; settings: room temperature
T2 construct: host or cells: HEK 293, transient (lipofectamine)
T2 sequence (Q14524 1-2015 isoform Q14524-2): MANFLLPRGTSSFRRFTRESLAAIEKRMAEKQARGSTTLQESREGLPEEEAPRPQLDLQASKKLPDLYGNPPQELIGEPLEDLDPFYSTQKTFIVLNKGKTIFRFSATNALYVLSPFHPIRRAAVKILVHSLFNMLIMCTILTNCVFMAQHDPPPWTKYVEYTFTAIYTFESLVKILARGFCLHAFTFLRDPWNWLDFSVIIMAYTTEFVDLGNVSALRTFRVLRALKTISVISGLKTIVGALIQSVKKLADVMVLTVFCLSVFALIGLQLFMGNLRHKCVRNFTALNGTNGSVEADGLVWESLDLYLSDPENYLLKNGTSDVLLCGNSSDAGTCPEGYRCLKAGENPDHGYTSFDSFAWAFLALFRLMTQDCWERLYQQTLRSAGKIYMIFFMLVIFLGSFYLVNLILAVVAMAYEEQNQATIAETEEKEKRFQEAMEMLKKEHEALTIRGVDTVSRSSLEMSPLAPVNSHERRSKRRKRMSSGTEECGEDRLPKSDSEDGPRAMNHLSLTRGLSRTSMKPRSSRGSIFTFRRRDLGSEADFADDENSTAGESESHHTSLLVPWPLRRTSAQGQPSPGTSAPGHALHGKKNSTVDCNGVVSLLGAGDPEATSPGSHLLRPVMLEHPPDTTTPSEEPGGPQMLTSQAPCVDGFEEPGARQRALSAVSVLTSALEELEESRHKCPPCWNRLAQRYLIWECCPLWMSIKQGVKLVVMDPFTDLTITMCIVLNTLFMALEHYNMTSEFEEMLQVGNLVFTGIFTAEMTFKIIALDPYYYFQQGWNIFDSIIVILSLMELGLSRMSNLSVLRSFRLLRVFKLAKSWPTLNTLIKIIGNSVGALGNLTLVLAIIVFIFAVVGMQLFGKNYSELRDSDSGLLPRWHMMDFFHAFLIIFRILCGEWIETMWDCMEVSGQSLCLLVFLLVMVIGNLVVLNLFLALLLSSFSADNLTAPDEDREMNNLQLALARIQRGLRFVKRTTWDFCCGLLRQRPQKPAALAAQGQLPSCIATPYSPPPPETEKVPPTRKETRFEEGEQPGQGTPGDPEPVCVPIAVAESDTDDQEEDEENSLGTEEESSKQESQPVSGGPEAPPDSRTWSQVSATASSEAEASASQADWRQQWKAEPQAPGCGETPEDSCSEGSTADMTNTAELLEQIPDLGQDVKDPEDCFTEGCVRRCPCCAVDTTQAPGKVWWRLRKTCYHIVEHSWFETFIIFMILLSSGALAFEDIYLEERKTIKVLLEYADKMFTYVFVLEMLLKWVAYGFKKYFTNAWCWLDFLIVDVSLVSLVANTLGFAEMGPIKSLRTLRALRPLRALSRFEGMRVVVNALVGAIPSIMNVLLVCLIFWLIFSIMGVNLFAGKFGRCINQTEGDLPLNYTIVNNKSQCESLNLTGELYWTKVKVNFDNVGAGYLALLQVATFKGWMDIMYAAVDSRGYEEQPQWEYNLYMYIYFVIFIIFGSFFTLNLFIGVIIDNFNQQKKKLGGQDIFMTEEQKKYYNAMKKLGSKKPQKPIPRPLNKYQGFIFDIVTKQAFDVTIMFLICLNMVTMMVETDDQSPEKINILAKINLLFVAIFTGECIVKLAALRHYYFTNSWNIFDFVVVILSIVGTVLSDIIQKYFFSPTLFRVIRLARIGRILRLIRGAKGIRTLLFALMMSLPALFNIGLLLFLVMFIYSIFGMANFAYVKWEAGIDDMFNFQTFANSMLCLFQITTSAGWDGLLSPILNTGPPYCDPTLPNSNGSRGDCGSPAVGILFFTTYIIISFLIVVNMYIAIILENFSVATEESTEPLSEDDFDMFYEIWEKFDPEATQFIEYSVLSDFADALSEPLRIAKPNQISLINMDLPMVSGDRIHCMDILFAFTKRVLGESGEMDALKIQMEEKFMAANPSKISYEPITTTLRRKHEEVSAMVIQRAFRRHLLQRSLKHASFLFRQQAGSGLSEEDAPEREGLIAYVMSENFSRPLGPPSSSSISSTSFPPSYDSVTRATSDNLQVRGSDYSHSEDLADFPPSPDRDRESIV
From the text: The hERG‐encoded voltage‐dependent potassium channel current (I hERG) cells to be studied were harvested with Detachin solution and either diluted with a volume of CHO cell serum‐free media (supplemented with 100 IU·ml^−1 of penicillin/streptomycin and 25‐mM HEPES) to obtain cells, for which the cell density was ~4 x10^6 cells·ml^−1, or plated on glass coverslips and used on the following 1–2 days. HEK 293 cells were transiently transfected using lipofectamine (Invitrogen, USA), with a human sodium voltage‐gated channel subunit 5 (hSCN5) A (transcript variant 2)‐containing plasmid, in Optimem medium. After a 5‐h incubation period, the transfection medium was replaced with the normal growth medium. The cells were harvested by trypsinization, centrifuged and resuspended in the appropriate extracellular solution for performing studies the next day. CHO–5‐HT2B cells were plated into 96‐well plates on the previous day, at a density of 4 x10^4 cells per well, with a modified version of the growth media.
Manual patch‐clamp recordings of membrane currents (I NCX, L‐type Ca^2+ channel current [I CaL], human cardiac sodium 1.5 current [I Na], and I hERG) were undertaken using either an Axopatch 200B or Axopatch ID amplifier (Molecular Devices, USA), using the whole‐cell configuration. […]

[2] = system: human ventricular trabeculae

Compound | IC50 (human NCX 1.1) | IC50 [1] | potency as NCX inhibitor relative to SEA0400 (human NCX 1.1) | STV and triangulation (pro‐arrhythmia markers) ([2]; 1 or 2 Hz, ORM‐11372 any tested concentration, dofetilide 0.1 μM (positive control)) | APD30, APD50 and APD90 ([2]; up to 10 μM, 1‐ and 2‐Hz pacing)
CCOc1ccc(Oc2ccc(OCc3cc(F)ccc3F)cc2)c(N)c1 [SEA0400, reference compound] | 376 nM |  |  |  | 
Nc1cccc(-c2ccc(CNc3ccc(F)cc3)o2)c1 [ORM‐11372] | 6.2 nM and 6 nM | 23200 nM | more than 10 times | no effects | no significant changes
O=C(CN1CCC(O)CC1)Nc1ccc(Oc2ccc3c(c2)CCC(c2ccccc2)O3)nc1 (stereo not shown) [ORM-10962] | 197 nM |  |  |  | 
